From patent US4083993A, “Compositions containing benzoylacetonitrile and method of use to treat inflammation” (American Cyanamid Co., priority 1977, dated 1978) come the findings set out here.

Molecules are shown by their SMILES.

The test system of the series is adjuvant induced arthritis. Kind of series: adjuvant induced arthritis in rats (Freund's adjuvant, injected right hind paw; chronic inflammation with joint destruction). In kind it is in vivo, royal Hart, Wistar strain rats. Particulars: oral, once daily days 0-13. On the procedure:
Groups of three royal Hart, Wistar strain rats weighing 200+10 grams each were injected intradermally in the right hind paw with Freund's adjuvant (dried human tubercle bacilli in a mineral oil vehicle) at a dose of 2 mg./kg. of body weight. Test compounds were administered orally in a 1.5% starch vehicle at various doses once daily on days 0 through 13 post challenge. Control rats were treated in a similar manner, but given only starch vehicle. On the 14th and 21st day post challenge the diameter of the injected paw (primary lesion) was measured by micrometer caliper. The volume of inflamed paws were estimated from these measurements and the results are expressed as percent inhibition of swelling as compared to controls. At the same time, the other inflamed sites, such as ears, paws and tail (secondary lesions) were observed and each rat was graded as to degree of inflammation and swelling present. The grading is based on a scale of 0 to 24, where 0 represents a complete absence of induced arthritic nodules and 24 represents the maximum degree of inflammation. The mean grade for each treated group is calculated and the effects of each compound are expressed as percent inhibition of the control grade. Table I records the results of these tests conducted with benzoylacetonitrile, o-fluorobenzoylacetonitrile, m-fluorobenzoylacetonitrile, p-fluorobenzoylacetonitrile, and known anti-inflammatory agents. The active compounds of the present invention suppress the progression of the arthritis and associated joint deterioration.

Where [1] appears, read: 25 mg./kg. of body weight, day 14.
The mark [2] stands for this setting: 25 mg./kg. of body weight, day 21.
The mark [3] stands for this setting: 50 mg./kg. of body weight, day 14.
[4] abbreviates: 50 mg./kg. of body weight, day 21.
Setting [5] is: 100 mg./kg. of body weight, day 14.
[6] abbreviates: 100 mg./kg. of body weight, day 21.
[7] abbreviates: 200 mg./kg. of body weight, day 14.
[8] abbreviates: 200 mg./kg. of body weight, day 21.
[9] abbreviates: 400 mg./kg. of body weight, day 14.
[10] abbreviates: 400 mg./kg. of body weight, day 21.

As to `N#CCC(=O)c1ccccc1` [Benzoylacetonitrile, benzoylacetonitrile], the “Dead/Treated At 21 Days” value (25 mg./kg. of body weight) was 3/36; the “Dead/Treated At 21 Days” value (50 mg./kg. of body weight) was 6/54; the “Dead/Treated At 21 Days” value (100 mg./kg. of body weight) is given as 5/36; the “Dead/Treated At 21 Days” value (200 mg./kg. of body weight) is 2/18; the “Dead/Treated At 21 Days” value (400 mg./kg. of body weight) is given as 3/18. The “% Inhibition of Control Grade (secondary lesion)” value (from here on “% Inhibition of Control Grade”) was 40% under setting [1]; 14% under setting [2]; 52% under setting [3]; 26% under setting [4]; 70% under setting [5]; 43% under setting [6]. The “% Inhibition of Control Grade” value reads like this: under setting [7], 70%; under setting [8], 43%; under setting [9], 84%; under setting [10], 82%. For the same compound, the “% Inhibition of Swelling (primary lesion)” value (“% Inhibition of Swelling” below) is 54% under setting [1]; 33% under setting [2]; 51% under setting [3]; 42% under setting [4]; 63% under setting [5]; 48% under setting [6]. Also, the “% Inhibition of Swelling” value runs as follows: under setting [7], 73%; under setting [8], 48%; under setting [9], 81%; under setting [10], 72%. Besides, the “Mean Weight Gain” value by setting is: under setting [1], 54 grams; under setting [2], 56 grams; under setting [3], 53 grams; under setting [4], 59 grams; under setting [5], 49 grams; under setting [6], 65 grams. Also, the “Mean Weight Gain” value runs as follows: under setting [7], 56 grams; under setting [8], 81 grams; under setting [9], 31 grams; under setting [10], 72 grams.
For `N#CCC(=O)c1cccc(F)c1` [m-Fluorobenzoylacetonitrile, m-fluorobenzoylacetonitrile], the “Dead/Treated At 21 Days” value (50 mg./kg. of body weight) is on record as 0/21. Also, the “% Inhibition of Swelling” value is on record as 40% under setting [3] and 27% under setting [4]. Moreover, the “Mean Weight Gain” value by setting is: under setting [3], 43 grams; under setting [4], 37 grams.
For the compound `N#CCC(=O)c1ccccc1F` [o-Fluorobenzoylacetonitrile, o-fluorobenzoylacetonitrile], the “Dead/Treated At 21 Days” value (50 mg./kg. of body weight) was 1/18. Further, under setting [3], the “% Inhibition of Swelling” value was determined as 63% and the “Mean Weight Gain” value was 71 grams. Besides, under setting [4], the “% Inhibition of Swelling” value is 49% and the “Mean Weight Gain” value amounted to 72 grams.
On to `N#CCC(=O)c1ccc(F)cc1` [p-Fluorobenzoylacetonitrile, p-fluorobenzoylacetonitrile], for which the “Dead/Treated At 21 Days” value reads like this: (25 mg./kg. of body weight) 1/18; (50 mg./kg. of body weight) 2/36; (100 mg./kg. of body weight) 4/18; (200 mg./kg. of body weight) 3/18; (400 mg./kg. of body weight) 3/18. Besides, the “% Inhibition of Control Grade” value turned out to be 25% under setting [1]; 0% under setting [2]; 13% under setting [3]; 0% under setting [4]; 44% under setting [5]; 10% under setting [6]. Moreover, the “% Inhibition of Control Grade” value is recorded as 63% under setting [7], 16% under setting [8], 72% under setting [9] and 45% under setting [10]. For the same compound, the “% Inhibition of Swelling” value under setting [1] is on record as 33%; the “% Inhibition of Swelling” value under setting [2] turned out to be 17%; the “% Inhibition of Swelling” value under setting [3] is 56%; the “% Inhibition of Swelling” value under setting [4] is reported as 39%; the “% Inhibition of Swelling” value under setting [5] was found to be 46%; the “% Inhibition of Swelling” value under setting [6] came to 32%. Besides, the “% Inhibition of Swelling” value is given as 52% under setting [7], 32% under setting [8], 75% under setting [9] and 63% under setting [10]. For the same compound, the “Mean Weight Gain” value is 55 grams under setting [1]; 48 grams under setting [2]; 61 grams under setting [3]; 58 grams under setting [4]; 63 grams under setting [5]; 71 grams under setting [6]. In addition, the “Mean Weight Gain” value was found to be 67 grams under setting [7], 62 grams under setting [8], 42 grams under setting [9] and 64 grams under setting [10].
